In patent US20190314379A1, “METHODS OF USING CANNABINOID CB2 RECEPTOR AGONIST COMPOSITIONS TO SUPPRESS AND PREVENT OPIOID TOLERANCE AND WITHDRAWAL IN A SUBJECT” (Indiana University Research and Technology Corporation, priority 2018, published 2019):
Entries after “also recorded” stand apart in the source; their conditions may differ.

Legend:
mouse CB2 receptors [1] = biological target: T1, mouse CB2 receptors (Mus musculus, UniProt P47936); assay: Arrestin recruitment (PathHunter CHO K1CNR2, enzyme complementation); format: cell-based
T1 construct: expressed in transfected cells
T1 sequence (P47936 whole entry): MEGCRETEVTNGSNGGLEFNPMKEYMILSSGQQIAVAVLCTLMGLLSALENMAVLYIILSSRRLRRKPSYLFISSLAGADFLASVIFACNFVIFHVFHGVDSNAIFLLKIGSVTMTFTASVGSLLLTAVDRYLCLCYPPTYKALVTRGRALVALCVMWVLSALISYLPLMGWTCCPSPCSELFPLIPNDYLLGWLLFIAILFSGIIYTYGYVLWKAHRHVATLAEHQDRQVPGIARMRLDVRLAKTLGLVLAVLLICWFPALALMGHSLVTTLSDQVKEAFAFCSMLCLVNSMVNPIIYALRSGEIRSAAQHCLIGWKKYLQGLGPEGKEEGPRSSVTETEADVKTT

human CB2 [2] = biological target: T2, human CB2 (Homo sapiens, UniProt P34972); assay: On-cell western for receptor internalization, HEK hCB2; format: cell-based; parameters: expressed in transfected cells
T2 sequence (P34972 whole entry): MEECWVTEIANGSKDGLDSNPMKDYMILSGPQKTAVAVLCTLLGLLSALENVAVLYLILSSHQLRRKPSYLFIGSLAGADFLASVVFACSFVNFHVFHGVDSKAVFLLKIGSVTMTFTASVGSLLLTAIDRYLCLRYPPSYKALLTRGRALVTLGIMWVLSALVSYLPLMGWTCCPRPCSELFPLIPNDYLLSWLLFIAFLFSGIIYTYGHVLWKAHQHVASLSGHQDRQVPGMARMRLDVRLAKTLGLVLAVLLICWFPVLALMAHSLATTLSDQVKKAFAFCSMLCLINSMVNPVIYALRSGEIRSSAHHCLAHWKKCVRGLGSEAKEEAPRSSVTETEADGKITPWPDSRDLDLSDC

osteoarthritic knee pain = conditions: cited from earlier work
[3] = system: paclitaxel-induced mechanical allodynia; assay: Paclitaxel-induced mechanical allodynia (electronic von Frey); format: in vivo, mouse; conditions: for mechanical allodynia, chronic phase 1 treatment: 3 mg/kg per day i.p.×12 days
Experimental: In all studies, the experimenter was blinded to the treatment condition, and mice were randomly assigned to experimental conditions. Paclitaxel (4 mg/kg i.p.) was administered four times on alternate days (cumulative dose, 16 mg/kg i.p.) to induce neuropathic pain as described previously by our group (Deng et al., 2015). Control mice received an equal volume of cremophor-vehicle. Development of paclitaxel-induced allodynia was assessed on day 0, 4, 7, 11, and 14.
Effects of pharmacologic manipulations were assessed at 30 minutes after drug administration during the maintenance phase of paclitaxel-induced neuropathy (i.e., beginning day 18-20 after initial paclitaxel injection).
In experiments 2 and 3, pharmacologic manipulations were performed once daily for 12 consecutive days in each of the two phases of chronic treatment. Four days separated phase 1 and phase 2 chronic dosing in all studies comprising two phases of chronic dosing. Experiments 2 and 3 were performed concurrently using overlapping cohorts that were tested with a single vehicle (phase 1), vehicle (phase 2) group.
We then assessed the antiallodynic efficacy of chronic systemic administration of vehicle or morphine (10 mg/kg per day i.p.×12 days) administered during phase 2 in the same animals. Responsiveness to mechanical and cold stimulation was evaluated on treatment days 1, 4, 8, and 12 during phase 1 and on treatment days 16, 19, 23, and 27 during phase 2 (i.e., phase 2 started on day 16).
In experiment 4, we evaluated the impact of coadministration of morphine (10 mg/kg i.p.×12 days) with a submaximal dose of LY 2828360 (0.1 mg/kg per day i.p.×12 days) in WT and CB2 KO mice.
Paw withdrawal thresholds (grams) to mechanical stimulation were measured in duplicate for each paw using an electronic von Frey anesthesiometer supplied with a 90-g probe (model Alemo 2390-5; IITC, Woodland Hills, Calif.) as described previously. Mice were placed on an elevated metal mesh table and allowed to habituate under individual, inverted plastic cages to the testing platform for at least 20 minutes until exploratory behavior had ceased. Alter the habituation period, a force was applied to the midplantar region of the hind paw with a semiflexible tip connected to the anesthesiometer. Mechanical stimulation was terminated when the animal withdrew its paw, and the value of the applied force was recorded in grams. Mechanical paw withdrawal thresholds were obtained in duplicate for each paw and are reported as the mean of duplicate determinations from each animal, averaged across animals, for each group.

mouse CB2 receptors [4] = biological target: T1, mouse CB2 receptors; assay: Myo-inositol phosphate-1 (IP1) accumulation, HEK mCB2; format: cell-based; conditions: via mouse CB2
mouse CB2 receptors [5] = biological target: T1, mouse CB2 receptors; assay: Phosphorylated ERK1/2 detection, HEK mCB2; format: cell-based; conditions: for Emax: read-out: pERK1/2 Emax
human CB2 [6] = biological target: T2, human CB2; assay: Phosphorylated ERK1/2 detection, HEK hCB2; format: cell-based; parameters: expressed in transfected cells; conditions: for Emax: read-out: pERK1/2 Emax
[7] = WT mice, 3 mg/kg per day i.p.×12 days after phase 1 morphine

Cc1nc(N2CCN(C)CC2)c2nc(-c3ccccc3Cl)n(C3CCOCC3)c2n1 [LY2828360, 8-(2-chlorophenyl)-2-methyl-6-(4-methylpiperazin-1-yl)-9-(tetrahydro-2H-pyran-4-yl)-9H-purine]
arrestin recruitment (mouse CB2 receptors [1]; CHO cells expressing mCB2, 90-minute drug incubation): failed to do so | Emax (mouse CB2 receptors [1]; mouse CB2, 90 mins incubation, read-out: Arrestin Emax): 97.9% | receptor internalization (human CB2 [2]; HEK hCB2): failed to internalize the receptor | Emax (human CB2 [2]; human CB2, 90 mins incubation, read-out: Internalization Emax): 10.2% | risks or discomforts in human subjects (osteoarthritic knee pain; osteoarthritic pain, up to 80 mg for 4 weeks): No specific risks or discomforts | primary endpoint vs placebo / relief of osteoarthritis pain (osteoarthritic knee pain; patients with osteoarthritic knee pain, phase 2): ineffective in relieving pain associated with osteoarthritis; also recorded: did not differ | time for responsiveness to mechanical stimulation to return to baseline ([3]; 3 mg/kg i.p. acute): 1 days | mechanical allodynia, chronic phase 1 treatment ([3]; CB2KO mice): failed to suppress | mechanical responsiveness, phase 2 treatment of morphine-tolerant mice ([3]; CB2KO mice, 3 mg/kg per day i.p.×12 days after phase 1 morphine): did not alter responsiveness to mechanical or cold stimulation | mechanical allodynia, coadministration with morphine ([3]; CB2KO mice, LY2828360 0.1 mg/kg with morphine 10 mg/kg per day×12 days): sustained antiallodynic efficacy was absent | development of tolerance to antiallodynic effect of phase 2 morphine, mechanical ([3]; CB2KO mice, LY2828360 phase 1, morphine phase 2): did not block the development of morphine tolerance | paclitaxel-induced mechanical allodynia, high dose ([3]; WT mice, 3 mg/kg i.p. acute): fully reversed paclitaxel-induced allodynia and normalized responses to pre-paclitaxel baseline levels | mechanical allodynia, chronic phase 1 treatment ([3]; WT mice): markedly suppressed paclitaxel-induced mechanical and cold allodynia throughout the observation interval | mechanical allodynia, phase 2 treatment of morphine-tolerant mice [3, 7]: fully reversed paclitaxel-induced allodynia and normalized responsiveness to pre-paclitaxel baseline levels | tolerance to phase 2 treatment, mechanical [3, 7]: tolerance did not develop | mechanical allodynia, coadministration with morphine ([3]; WT mice, LY2828360 0.1 mg/kg per day i.p.×12 days with morphine 10 mg/kg per day×12 days): fully reversed paclitaxel-induced mechanical allodynia and normalized responses to pre-paclitaxel baseline levels throughout the observation period | development of morphine tolerance under coadministration, mechanical ([3]; WT mice, LY2828360 0.1 mg/kg with morphine 10 mg/kg per day×12 days): morphine tolerance failed to develop | development of tolerance to antiallodynic effect of phase 2 morphine, mechanical ([3]; WT mice, LY2828360 3 mg/kg per day×12 days phase 1, morphine 10 mg/kg×12 days phase 2): prevented the development of morphine tolerance | paclitaxel-induced mechanical allodynia, acute dose response ([3]; WT mice, acute systemic (i.p.), dose-dependent): suppressed | mechanical allodynia at low doses vs cremophor-vehicle controls ([3]; WT mice, doses lower than 0.3 mg/kg i.p.): neuropathic pain was prominent | stability of antiallodynic efficacy (tolerance), mechanical ([3]; WT mice, phase 1, 3 mg/kg per day i.p.×12 days): stable throughout phase 1 treatment | IP1 accumulation (mouse CB2 receptors [4]): did not affect IP1 accumulation | ERK1/2 phosphorylation time course (mouse CB2 receptors [5]; mCB2, 1 μM): had no effect at 5- and 10-minute time points but increased ERK1/2 phosphorylation at 20, 30, and 40 minutes | ERK1/2 phosphorylation after PTX treatment (mouse CB2 receptors [5]; mCB2, 1 μM, PTX): abolished the 20-minute phosphorylation of ERK1/2 | ERK1/2 phosphorylation, concentration response (mouse CB2 receptors [5]; mCB2, 5 minutes): failed to affect pERK1/2 levels | ERK1/2 phosphorylation, concentration response (mouse CB2 receptors [5]; mCB2, 20 minutes): increased ERK1/2 phosphorylation | effect on ERK1/2 phosphorylation in presence of SR144528 (mouse CB2 receptors [5]; mCB2, 20 minutes, SR144528 1 μM): blocked | Emax (mouse CB2 receptors [5]; mouse CB2, 05 mins incubation): 4.1% | EC50 (mouse CB2 receptors [5]; mouse CB2, 20 mins incubation, read-out: pERK1/2 EC50): 339 nM | Emax (mouse CB2 receptors [5]; mouse CB2, 20 mins incubation): 43.6% | ERK1/2 phosphorylation time course (human CB2 [6]; hCB2, 1 pM): increased ERK1/2 phosphorylation after 30 minutes, but not at 5 minutes | ERK1/2 phosphorylation after PTX treatment (human CB2 [6]; hCB2, 1 pM, PTX): abolished ERK1/2 phosphorylation | stimulated phosphorylation of ERK1/2 in presence of SR144528 (human CB2 [6]; hCB2, SR144528 (1 pM)): completely blocked | Emax (human CB2 [6]; human CB2, 05 mins incubation): 22.1% | Emax (human CB2 [6]; human CB2, 30 mins incubation): 32.3%
